According to paper PMC9297976 (Journal of Applied Toxicology, 2021):

How the values were obtained:
[1] = test system: Japanese medaka (Oryzias latipes); test: Fish Short‐Term Reproduction Assay; format: in vivo; conditions: for GSI Female / GSI Male / HSI Female / HSI Male / Length Female / Length Male / Weight Female / Weight Male: completion of exposure
medaka Esr1 (mEsr1) [2] = target: T1, medaka Esr1 (mEsr1) (Oryzias latipes, UniProt P50241); test: cell-based; set-up: species or system Japanese medaka (Oryzias latipes)
T1 sequence (P50241 1-620): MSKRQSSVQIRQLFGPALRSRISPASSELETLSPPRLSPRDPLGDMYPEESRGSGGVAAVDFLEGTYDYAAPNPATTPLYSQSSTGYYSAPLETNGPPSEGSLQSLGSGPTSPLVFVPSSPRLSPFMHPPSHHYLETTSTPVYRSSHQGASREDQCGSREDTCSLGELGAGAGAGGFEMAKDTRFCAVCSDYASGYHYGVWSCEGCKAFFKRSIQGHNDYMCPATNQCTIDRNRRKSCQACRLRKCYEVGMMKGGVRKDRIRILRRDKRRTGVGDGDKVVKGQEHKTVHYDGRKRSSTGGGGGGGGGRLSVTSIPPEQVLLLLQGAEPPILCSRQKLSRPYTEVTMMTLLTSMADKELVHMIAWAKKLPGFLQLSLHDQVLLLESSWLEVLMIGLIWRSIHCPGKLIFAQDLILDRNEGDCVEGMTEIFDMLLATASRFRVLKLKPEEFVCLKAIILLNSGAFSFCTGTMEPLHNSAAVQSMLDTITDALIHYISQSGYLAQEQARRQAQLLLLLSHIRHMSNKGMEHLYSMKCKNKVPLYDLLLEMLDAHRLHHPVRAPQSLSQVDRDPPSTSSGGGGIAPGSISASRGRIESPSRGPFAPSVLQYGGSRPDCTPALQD

medaka ARβ (mArβ) [3] = target: T2, medaka ARβ (mArβ) (Oryzias latipes, UniProt D1MV73); test: Medaka ARβ reporter gene assay, agonist assay; format: cell-based, Japanese medaka (Oryzias latipes); conditions: MAC = 1.0 × 10^−5 M
T2 sequence (D1MV73 1-744): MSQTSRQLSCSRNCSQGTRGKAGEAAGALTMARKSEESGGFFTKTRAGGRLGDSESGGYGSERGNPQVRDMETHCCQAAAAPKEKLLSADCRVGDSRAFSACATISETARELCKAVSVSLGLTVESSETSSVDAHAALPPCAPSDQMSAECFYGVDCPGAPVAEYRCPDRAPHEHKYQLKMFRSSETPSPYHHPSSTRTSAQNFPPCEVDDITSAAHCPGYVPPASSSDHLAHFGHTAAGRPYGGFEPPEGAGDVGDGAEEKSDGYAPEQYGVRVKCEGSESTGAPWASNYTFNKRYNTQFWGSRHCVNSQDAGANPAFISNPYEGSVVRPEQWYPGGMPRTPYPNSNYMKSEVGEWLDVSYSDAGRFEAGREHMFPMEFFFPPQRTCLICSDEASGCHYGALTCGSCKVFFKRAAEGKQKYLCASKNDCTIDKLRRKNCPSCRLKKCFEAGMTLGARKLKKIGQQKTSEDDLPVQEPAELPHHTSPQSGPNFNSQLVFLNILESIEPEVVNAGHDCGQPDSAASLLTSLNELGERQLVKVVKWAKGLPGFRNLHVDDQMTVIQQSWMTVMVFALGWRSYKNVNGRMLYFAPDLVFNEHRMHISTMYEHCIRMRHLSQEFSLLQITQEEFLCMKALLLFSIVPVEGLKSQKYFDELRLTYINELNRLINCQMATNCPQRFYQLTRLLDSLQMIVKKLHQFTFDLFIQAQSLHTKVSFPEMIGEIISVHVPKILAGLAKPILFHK

medaka Esr1 (mEsr1) [4] = target: T1, medaka Esr1 (mEsr1); test: Medaka Esr1 reporter gene assay, antagonist assay; format: cell-based, Japanese medaka (Oryzias latipes); conditions: E2 spiked at 1.0 nM (B); MAC = 1.0 × 10^−5 M
medaka ARβ (mArβ) [5] = target: T2, medaka ARβ (mArβ); test: Medaka ARβ reporter gene assay, antagonist assay; format: cell-based, Japanese medaka (Oryzias latipes); conditions: 11‐KT spiked at 50 nM (D); MAC = 1.0 × 10^−5 M
[6] = 177 μg/L measured, 21 d, sig. ↑ vs control
[7] = 353 μg/L measured, 21 d, sig. ↑ vs control
[8] = 353 μg/L measured, 21 d, sig. ↓ vs control
[9] = measured concentration 54.4 μg/L
[10] = measured concentration 104 μg/L
[11] = measured concentration 177 μg/L
[12] = measured concentration 353 μg/L

`Oc1cc(Cl)ccc1Oc1ccc(Cl)cc1Cl` [TCS, Triclosan] was tested, and the Fertility rate ([1]; 54.4 μg/L measured, 21 d) was 96 ± 3.3%, the “Hepatic VTG, female” value ([1]; 54.4 μg/L measured, 21 d) was 616 ± 220 ng/mg‐liver and the “Hepatic VTG, male” value ([1]; 54.4 μg/L measured, 21 d) was 3.3 ± 4.7 ng/mg‐liver. For the same compound, the Mortality ([1]; 54.4 μg/L measured, 21 d) was 4.2%, the “Mortality, number of dead fish” value ([1]; 54.4 μg/L measured, 21 d) was 1 and the “Number of fertilized eggs (per female per day)” value ([1]; 54.4 μg/L measured, 21 d) was 25 ± 4.0. For the same compound, the “Number of total eggs (per female per day)” value ([1]; 54.4 μg/L measured, 21 d) was 26 ± 3.8, the “SSC female (joint plates with papillary processes)” value (shortened to “SSC female”) ([1]; 54.4 μg/L measured, 21 d) was 0 ± 0 and the Fertility rate ([1]; 104 μg/L measured, 21 d) was 98 ± 1.4%. For the same compound, the “Hepatic VTG, female” value ([1]; 104 μg/L measured, 21 d) was 698 ± 32 ng/mg‐liver, the “Hepatic VTG, male” value ([1]; 104 μg/L measured, 21 d) was 4.5 ± 2.7 ng/mg‐liver and the Mortality ([1]; 104 μg/L measured, 21 d) was 13%. For the same compound, the “Mortality, number of dead fish” value ([1]; 104 μg/L measured, 21 d) was 3, the “Number of fertilized eggs (per female per day)” value ([1]; 104 μg/L measured, 21 d) was 24 ± 1.0 and the “Number of total eggs (per female per day)” value ([1]; 104 μg/L measured, 21 d) was 24 ± 1.1. The “SSC female” value ([1]; 104 μg/L measured, 21 d) was 0 ± 0, the Fertility rate ([1]; 177 μg/L measured, 21 d) was 97 ± 1.5% and the “Number of fertilized eggs (per female per day)” value ([1]; 177 μg/L measured, 21 d) was 18 ± 7.0. For the same compound, the “Number of total eggs (per female per day)” value ([1]; 177 μg/L measured, 21 d) was 19 ± 7.2, the “SSC female” value ([1]; 177 μg/L measured, 21 d) was 0 ± 0 and the “Hepatic VTG, female” value [1, 6] was 955 ± 73 ng/mg‐liver. For the same compound, the Mortality [1, 6] was 29%, the “Mortality, number of dead fish” value [1, 6] was 7 and the “Hepatic VTG, male” value ([1]; 177 μg/L measured, 21 d, sig. ↓ vs control) was 0.9 ± 0.1 ng/mg‐liver. For the same compound, the Fertility rate ([1]; 353 μg/L measured, 21 d) was 98 ± 0.8%, the “SSC female” value ([1]; 353 μg/L measured, 21 d) was 0 ± 0 and the “Hepatic VTG, female” value [1, 7] was 1,111 ± 265 ng/mg‐liver. The Mortality [1, 7] was 50%, the “Mortality, number of dead fish” value [1, 7] was 12 and the “Hepatic VTG, male” value [1, 8] was 1.0 ± 0.3 ng/mg‐liver. The “Number of fertilized eggs (per female per day)” value [1, 8] was 10 ± 1.9, the “Number of total eggs (per female per day)” value [1, 8] was 10 ± 2.0 and the “Change of hepatic VTG levels in females (in words)” value ([1]; 21 d) was “significant increase”. The “Fecundity, number of total eggs (in words)” value ([1]; 21 d) was “statistically significant decrease”, the minimal effective concentration ([1]; Oryzias latipes, 504 h, read-out: LOECmVTG) was > 0.353 µg/mL and the “Fertility rate (in words)” value ([1]; chemicals with significant decrease of number of total eggs) was “no significant effect”. The LOECTOX ([1]; lowest observed effect concentration on mortality) was 177 µg/L, the “GSI Female” value [1, 9] was 7.3 ± 0.4% and the “GSI Male” value [1, 9] was 1.00 ± 0.13%. For the same compound, the “HSI Female” value [1, 9] was 3.8 ± 0.40%, the “HSI Male” value [1, 9] was 1.6 ± 0.23% and the “Length Female” value [1, 9] was 33.5 ± 0.7 mm. The “Length Male” value [1, 9] was 33.6 ± 0.7 mm, the “Weight Female” value [1, 9] was 449 ± 11 mg and the “Weight Male” value [1, 9] was 379 ± 28 mg. For the same compound, the “GSI Female” value [1, 10] was 7.5 ± 0.6%, the “GSI Male” value [1, 10] was 1.00 ± 0.23% and the “HSI Female” value [1, 10] was 3.7 ± 0.79%. The “HSI Male” value [1, 10] was 1.5 ± 0.09%, the “Length Female” value [1, 10] was 32.8 ± 1.1 mm and the “Length Male” value [1, 10] was 34.8 ± 0.7 mm. The “Weight Female” value [1, 10] was 409 ± 20 mg, the “Weight Male” value [1, 10] was 417 ± 13 mg and the “GSI Female” value [1, 11] was 7.9 ± 1.4%. For the same compound, the “GSI Male” value [1, 11] was 0.90 ± 0.17%, the “HSI Female” value [1, 11] was 3.8 ± 0.30% and the “HSI Male” value [1, 11] was 1.4 ± 0.41%. The “Length Female” value [1, 11] was 32.4 ± 1.3 mm, the “Length Male” value [1, 11] was 33.3 ± 0.9 mm and the “Weight Female” value [1, 11] was 425 ± 45 mg. For the same compound, the “Weight Male” value [1, 11] was 380 ± 66 mg, the “GSI Female” value [1, 12] was 8.7 ± 1.1% and the “GSI Male” value [1, 12] was 1.20 ± 0.73%. For the same compound, the “HSI Female” value [1, 12] was 4.5 ± 0.23%, the “HSI Male” value [1, 12] was 2.4 ± 1.08% and the “Length Female” value [1, 12] was 33.2 ± 0.9 mm. For the same compound, the “Length Male” value [1, 12] was 33.3 ± 1.5 mm, the “Weight Female” value [1, 12] was 437 ± 30 mg and the “Weight Male” value [1, 12] was 361 ± 57 mg. The “Agonistic activity PC10” value (medaka Esr1 (mEsr1) [2]) was “PC10 = 2.0 × 10^−6 M”, the “In vitro positive: Esr” value (medaka Esr1 (mEsr1) [2]; mode of action in which EC50 or PC10 was obtained in RGA) was “Esr” and the Agonistic activity (medaka ARβ (mArβ) [3]) was “NE (MAC = 1.0 × 10^−5 M)”. For the same compound, the Antagonistic activity (medaka Esr1 (mEsr1) [4]) was “NE (MAC = 1.0 × 10^−5 M)^(B)” and the Antagonistic activity (medaka ARβ (mArβ) [5]) was “NE (MAC = 1.0 × 10^−5 M)^(D)”.
